Results: the NIST ThermoML archive (doi:10.1016/j.jct.2008.07.013)
Numbers after ± are expanded uncertainties.

How the values were obtained:
[1] = Liquid, Alternating current cell with electrodes
[2] = molar heat capacity at constant pressure; conditions: 101.33 kPa, Liquid, Small sample (50 mg) DSC

Row | electrical conductivity ([1]; 293.2 K) [S/m] | electrical conductivity ([1]; 298.2 K) [S/m] | electrical conductivity ([1]; 303.2 K) [S/m] | electrical conductivity ([1]; 308.2 K) [S/m] | electrical conductivity ([1]; 313.2 K) [S/m] | electrical conductivity ([1]; 318.2 K) [S/m] | electrical conductivity ([1]; 323.2 K) [S/m] | electrical conductivity ([1]; 328.2 K) [S/m] | electrical conductivity ([1]; 333.2 K) [S/m] | electrical conductivity ([1]; 343.2 K) [S/m] | electrical conductivity ([1]; 353.2 K) [S/m] | molar heat capacity at constant pressure ([2]; 303.2 K) [J/K/mol] | molar heat capacity at constant pressure ([2]; 308.2 K) [J/K/mol] | molar heat capacity at constant pressure ([2]; 313.2 K) [J/K/mol] | molar heat capacity at constant pressure ([2]; 318.2 K) [J/K/mol] | molar heat capacity at constant pressure ([2]; 323.2 K) [J/K/mol] | molar heat capacity at constant pressure ([2]; 328.2 K) [J/K/mol] | molar heat capacity at constant pressure ([2]; 333.2 K) [J/K/mol] | molar heat capacity at constant pressure ([2]; 338.2 K) [J/K/mol] | molar heat capacity at constant pressure ([2]; 343.2 K) [J/K/mol] | also measured | SMILES
1 | 0.834 ± 0.028 | 0.979 ± 0.028 | 1.16 ± 0.033 | 1.34 ± 0.036 | 1.52 ± 0.031 | 1.74 ± 0.031 | 1.94 ± 0.033 | 2.17 ± 0.039 | 2.42 ± 0.036 | 2.94 ± 0.028 | 3.51 ± 0.036 | 379.42 ± 50 | 381.5 ± 50 | 383.33 ± 50 | 385.41 ± 50 | 387.49 ± 51 | 389.57 ± 51 | 391.65 ± 51 | 393.74 ± 52 | 395.82 ± 52 | molar heat capacity at constant pressure ([2]; 348.2 K): 397.9 ± 52 J/K/mol; molar heat capacity at constant pressure ([2]; 353.2 K): 399.72 ± 52 J/K/mol; molar heat capacity at constant pressure ([2]; 358.2 K): 401.8 ± 53 J/K/mol | CCn1cc[n+](C)c1.O=S(=O)([O-])C(F)(F)F [1-ethyl-3-methylimidazolium trifluoromethanesulfonate]
2 | 1.38 ± 0.025 | 1.57 ± 0.028 | 1.789 ± 0.008 | 2.04 ± 0.028 | 2.32 ± 0.036 | 2.59 ± 0.036 | 2.91 ± 0.033 | 3.25 ± 0.033 | 3.59 ± 0.031 | 4.35 ± 0.036 | 5.18 ± 0.031 | 306.26 ± 40 | 308.44 ± 40 | 310.61 ± 41 | 312.79 ± 41 | 314.38 ± 41 | 315.37 ± 41 | 316.36 ± 41 | 318.34 ± 42 | 319.33 ± 42 | molar heat capacity at constant pressure ([2]; 348.2 K): 321.3 ± 42 J/K/mol; molar heat capacity at constant pressure ([2]; 353.2 K): 322.89 ± 42 J/K/mol; molar heat capacity at constant pressure ([2]; 358.2 K): 323.48 ± 42 J/K/mol | CCn1cc[n+](C)c1.F[B-](F)(F)F [1-ethyl-3-methylimidazolium tetrafluoroborate]
3 | 0.31 ± 0.022 | 0.398 ± 0.025 | 0.493 ± 0.008 | 0.603 ± 0.028 | 0.722 ± 0.028 | 0.852 ± 0.028 | 1 ± 0.025 | 1.17 ± 0.025 | 1.34 ± 0.025 | 1.74 ± 0.028 | 2.15 ± 0.028 | 429.81 ± 56 | 431.7 ± 56 | 435.01 ± 57 | 437.14 ± 57 | 441.39 ± 58 | 444.46 ± 58 | 447.3 ± 59 | 450.13 ± 59 | 452.97 ± 59 | molar heat capacity at constant pressure ([2]; 348.2 K): 456.51 ± 60 J/K/mol; molar heat capacity at constant pressure ([2]; 353.2 K): 461 ± 60 J/K/mol; molar heat capacity at constant pressure ([2]; 358.2 K): 463.6 ± 61 J/K/mol | CCOS(=O)(=O)[O-].CCn1cc[n+](C)c1 [1-ethyl-3-methylimidazolium ethyl sulfate]
4 | 1.89 ± 0.036 | 2.2 ± 0.042 | 2.55 ± 0.036 | 2.9 ± 0.028 | 3.29 ± 0.036 | 3.68 ± 0.036 | 4.1 ± 0.039 | 4.54 ± 0.031 | 5.02 ± 0.031 | 5.93 ± 0.033 | 6.86 ± 0.028 | 328.01 ± 43 | 329.96 ± 43 | 332.97 ± 44 | 335.1 ± 44 | 338.64 ± 44 | 340.77 ± 44 | 342.72 ± 45 | 344.49 ± 45 | 346.44 ± 45 | molar heat capacity at constant pressure ([2]; 348.2 K): 348.92 ± 46 J/K/mol; molar heat capacity at constant pressure ([2]; 353.2 K): 351.58 ± 46 J/K/mol; molar heat capacity at constant pressure ([2]; 358.2 K): 354.24 ± 46 J/K/mol | CCn1cc[n+](C)c1.N#CN=C=[N-] [1-ethyl-3-methylimidazolium dicyanamide]
5 | 0.11 ± 0.031 | 0.147 ± 0.025 | 0.194 ± 0.025 | 0.244 ± 0.028 | 0.307 ± 0.036 | 0.378 ± 0.031 | 0.459 ± 0.033 | 0.545 ± 0.033 | 0.641 ± 0.031 | 0.859 ± 0.036 | 1.12 ± 0.036 | 526.38 ± 69 | 527.94 ± 69 | 529.49 ± 69 | 531.04 ± 70 | 532.59 ± 70 | 533.83 ± 70 | 535.7 ± 70 | 537.25 ± 70 | 538.8 ± 70 | molar heat capacity at constant pressure ([2]; 348.2 K): 540.66 ± 71 J/K/mol; molar heat capacity at constant pressure ([2]; 353.2 K): 542.21 ± 71 J/K/mol; molar heat capacity at constant pressure ([2]; 358.2 K): 544.08 ± 71 J/K/mol | CCn1cc[n+](C)c1.COCCOCCOS(=O)(=O)[O-] [1-ethyl-3-methylimidazolium 2-(2-methoxyethoxy) ethylsulfate]
